Counter-ions that a name gives are not always drawn.
What was measured:
BE-1 = test: Soft agar colony formation disk diffusion assay; assay type: cell-based, human
Method in brief: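 Zone of inhibition, disk edge to the most proximal colonies, is the reported measure, checked under an inverted microscope at 40×. Colonies were cell aggregates of more than 50 cells, grown 10–20 days at 37 °C in soft agar around a drug-loaded paper disk.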

Leukemia = test: NCI assay, average per cancer type; details: for CC50: 48 h, read-out: Average LOG10 LC50; for GI50: read-out: Average LOG10 GI50
NSC Lung = test: NCI assay, average per cancer type; details: Homo sapiens; for CC50: 48 h, read-out: Average LOG10 LC50; for GI50: read-out: Average LOG10 GI50
CNS = test: NCI assay, average per cancer type; details: Homo sapiens; for CC50: 48 h, read-out: Average LOG10 LC50; for GI50: read-out: Average LOG10 GI50
Melanoma = test: NCI assay, average per cancer type; details: Homo sapiens; for CC50: 48 h, read-out: Average LOG10 LC50; for GI50: read-out: Average LOG10 GI50
Renal = test: NCI assay, average per cancer type; details: Homo sapiens; for CC50: 48 h, read-out: Average LOG10 LC50; for GI50: read-out: Average LOG10 GI50
solid tumors = test: NCI assay, mean potency in solid tumors; details: for CC50 / GI50: Homo sapiens; for CC50: 48 h, read-out: Average LOG10 LC50, Mean Potency in solid tumors; for GI50: read-out: Average LOG10 GI50, Mean Potency in solid tumors
tumor cell lines = test: NCI sulforhodamine B assay, all cell lines; details: for CC50 / IC100 / GI50: Homo sapiens; for CC50 / IC100: 48 h; for CC50: read-out: Log10 LC50, Mean / MG-MID, all cell lines (converted); for IC100: read-out: Log10 TGI, Mean / MG-MID, all cell lines; for GI50: read-out: Log10 GI50, Mean / MG-MID, all cell lines (converted)

| Compound | zone of inhibition (BE-1; 10 μg/DISK) [Zone Units] | zone of inhibition (BE-1; 100 μg/DISK) [Zone Units] | CC50 (Leukemia) [µM] | GI50 (Leukemia) [µM] | CC50 (NSC Lung) [µM] | GI50 (NSC Lung) [µM] | CC50 (CNS) [µM] | GI50 (CNS) [µM] | CC50 (Melanoma) [µM] | GI50 (Melanoma) [µM] | CC50 (Renal) [µM] | GI50 (Renal) [µM] | CC50 (solid tumors) [µM] | GI50 (solid tumors) [µM] | CC50 (tumor cell lines) [µM] | IC100 (tumor cell lines) [µM] | GI50 (tumor cell lines) [µM] | antiproliferative and cytotoxic activity in words (tumor cell lines) | Average LOG10 LC50, Mean Potency in solid tumors (solid tumors; solid tumors, 2880 min) [log molar] |
| --- | --- | --- | --- | --- | --- | --- | --- | --- | --- | --- | --- | --- | --- | --- | --- | --- | --- | --- | --- |
| COC(=O)[C@H]1CC2=C(C(=O)c3c(cc4ccccc4c3O)C2=O)[C@H](O[C@H]2C[C@H](NC(=O)C(F)(F)F)[C@H](O)[C@H](C)O2)O1 (mixture of isomers) [BCH-692, (1'S,1S,3R) and (1'S,1R,3S) Methyl[11-hydroxy-1-(2',3',6'-trideoxy-3'-trifluoroacetamido-4'-hydroxy-L-lyxohexopyranose)-5,12-dioxo-3,4,5,12-tetrahydro-anthraceno[2,3-c]pyran-3-yl]formate] | 0 | 100.0 ± 50.0 | – | – | – | – | – | – | – | – | – | – | – | – | – | – | – | – | – |
| COC(=O)[C@@H]1CC2=C(C(=O)c3c(cc4ccccc4c3O)C2=O)[C@@H](O[C@H]2C[C@H](NC(=O)C(F)(F)F)[C@H](O)[C@H](C)O2)O1 [BCH-691, (1'S,1R,3S)-Methyl-{11-hydroxy-1-(2',3',6'-trideoxy-3'-trifluoroacetamido-4'-hydroxy-L-lyxoheoxpyranose)-5,12-dioxo-3,4,5,12-tetrahydroanthraceno[2,3-c]pyran-3-yl}formate] | 55.0 ± 10.0 | 155.5 ± 50.3 | – | – | – | – | – | – | – | – | – | – | – | – | – | – | – | – | – |
| 3-carbomethoxy-6-hydroxy-1,2,3,4-tetrahydro-(2-sulfur)naphthacene-5,12-dione and 3-carbomethoxy-11-hydroxy-1,2,3,4-tetrahydro(2-sulfur)naphthacene-5,12-dione [BCH-693] | 0 | 76.2 ± 21.5 | – | – | – | – | – | – | – | – | – | – | – | – | – | – | – | – | – |
| CCOC(=O)[C@@H]1CC2=C(C(=O)c3cc4ccccc4c(O)c3C2=O)[C@@H](O[C@H]2C[C@H](NC(=O)C(F)(F)F)[C@H](O)[C@H](C)O2)O1 [BCH-681, (1'S,1R,3S)Ethyl[6-hydroxy-5,12-dioxo-1-(3'-trifuloroacetamido-1-daunosaminyl)-3,4,5,12-tetrahydroanthraceno(2,3-C)pyran-3-yl]formate] | – | – | < 100 | 2.04 | 22.9 | 2.88 | 22.4 | 2.88 | 5.01 | 1.12 | 21.9 | 3.02 | 12.3 | 2.09 | 16.2 | 5.5 | 2.14 | – | – |
| 3-(2-hydroxy)aceto-6-hydroxy-1,2,3,4-tetrahydro-(2-oxygen)naphthacene-5,12-dione and 3-(2-hydroxy)aceto-11-hydroxy-1,2,3,4-tetrahydro-(2-oxygen)naphthacene-5,12-dione [BCH-694] | 54.9 ± 8.6 | 189.0 ± 8.4 | – | – | – | – | – | – | – | – | – | – | – | – | – | – | – | – | – |
| COC(=O)[C@H]1CC2=C(C(=O)c3c(c(OC)c4ccccc4c3O)C2=O)[C@H](O[C@H]2C[C@H](NC(=O)C(F)(F)F)[C@H](O)[C@H](C)O2)O1 (mixture of isomers) [BCH-675, (1'S,1S,3R) and 1'S,1R,3S) Methyl(11-hydroxy-6-methoxy-1-[2',3',6'-trideoxy-3-trifluoroacetamido-4'-hydroxy-L-lyxohexopyranose]-5,12-dioxo-3,4,5,12-tetrahydroanthra-ceno[2,3-c]pyran-3-yl) formate] | 0 | 46.7 ± 5.3 | > 100 | 2.95 | 56.2 | 9.33 | 61.7 | 10.7 | 79.4 | 5.89 | 56.2 | 9.12 | 66.1 | 8.32 | 57.5 | 21.4 | 7.94 | – | – |
| CCOC(=O)C1CC2=C(CO1)C(=O)c1cc3ccccc3c(O)c1C2=O (stereo not shown) [BCH-653, Ethyl(6 and 11 hydroxy-5,12-dioxo-3,4,5,12-tetrahydro-anthraceno[2,3-c]pyran-3-yl)]formate] | – | 76.2 ± 21.5 | > 100 | 15.8 | > 100 | 44.7 | > 100 | 50.1 | > 100 | 33.1 | > 100 | 57.5 | > 100 | 39.8 | 100 | 100 | 42.7 | – | – |
| CCOC(=O)C1CC2=C(CO1)C(=O)c1c(cc3ccccc3c1O)C2=O (stereo not shown) [BCH-651, Ethyl(6 and 11 hydroxy-5,12-dioxo-3,4,5,12-tetrahydro-anthraceno[2,3-c]pyran-3-yl)]formate] | 0 | 106.7 ± 21.5 | > 100 | 3.31 | 50.1 | 7.76 | 64.6 | 10 | 34.7 | 2.75 | 55 | 10 | 50.1 | 5.25 | 58.9 | 21.4 | 5.5 | strong antiproliferative (GI50) and potent cytotoxic (LC50) activities | – |
| CCOC(=O)C1CC2=C(CO1)C(=O)c1c(c(O)c3ccccc3c1OC(C)=O)C2=O (stereo not shown) [BCH-654, Ethyl[11-acetoxy-6-hydroxy-5,12-dioxo-3,4,5,12-tetrahydroanthraceno(2,3-c)pyran-3-yl]formate] | 24.4 ± 8.6 | 153.0 ± 1.4 | – | – | – | – | – | – | – | – | – | – | – | – | – | – | – | – | – |
| CCOC(=O)[C@@H]1CC2=C(C(=O)c3cc4ccccc4c(OC(C)=O)c3C2=O)[C@@H](O)O1 (mixture of isomers) [BCH-660, (1S,3S) and (1R,3R)-Ethyl-[6-acetoxy-1-hydroxy-5,12-dioxo-3,4,5,12-tetrahydroanthraceno (2,3-c)pyran-3-yl]formate] | 45.7 ± 21.5 | 125.0 ± 12.7 | > 100 | 0.316 | 19.5 | 0.977 | 15.8 | 0.955 | 10.5 | 0.955 | 7.94 | 0.912 | 11.2 | 0.891 | 21.4 | 2.82 | 0.813 | strong antiproliferative (GI50) and potent cytotoxic (LC50) activities | – |
| COC(=O)[C@@H]1CC2=C(C(=O)c3c(c(OC)c4ccccc4c3O)C2=O)[C@@H](O[C@H]2C[C@H](NC(=O)C(F)(F)F)[C@H](O)[C@H](C)O2)O1 (mixture of isomers) [BCH-674, (1'S,1S,3R) and 1'S,1R,3S) Methyl(11-hydroxy-6-methoxy-1-[2',3',6'-trideoxy-3-trifluoroacetamido-4'-hydroxy-L-lyxohexopyranose]-5,12-dioxo-3,4,5,12-tetrahydroanthra-ceno[2,3-c]pyran-3-yl) formate] | – | – | > 100 | 8.71 | 69.2 | 9.33 | 63.1 | 13.8 | 89.1 | 13.2 | 57.5 | 8.91 | 81.3 | 12.3 | 67.6 | 30.2 | 12.3 | – | -4.09 ± 0.11 |
| CCOC(=O)[C@@H]1CC2=C(C(=O)c3c(c(O)c4ccccc4c3OC(C)=O)C2=O)[C@@H](O)O1 (mixture of isomers) [BCH-658, (1S,3S) and (1R,3R) Ethyl[11-acetoxy-1,6-dihydroxy-5,12-dioxo-3,4,5,12-tetrahydroanthraceno (2,3-c)pyran-3-yl]formate] | 0 | 0 | > 100 | > 100 | > 100 | > 100 | > 100 | 46.8 | > 100 | > 100 | > 100 | 46.8 | > 100 | 51.3 | 100 | 97.7 | 70.8 | – | – |
